Test results published in US11897867B2, “6-phenyl-4,5-dihydropyridazin-3(2H)-one derivatives as PDE3A and PDE3B inhibitors for treating cancer” (Bayer Aktiengesellschaft, priority 2017, dated 2024).

Tests used:
[1] = test system: HeLa cells (cervical cancer); experiment: Cell proliferation measurement (Cell Titer Glo), HeLa; assay type: cell-based; conditions: Homo sapiens, 72 h treatment, read-out: Anti-proliferation IC50 HeLa (Cervical cancer)
Procedure: (§1) The antiproliferative activity of the compounds of the general formula (I) was examined in vitro in human cancer cells. For this purpose, 1000 cells (or 500 HeLa cells) were plated in 384-well plates with appropriate growth medium and incubated at 37° C. overnight. After 24 h, the cells on the test plate were treated with the compounds of the general formula (I) as and incubated at 37° C. for 72 h. The compounds were added to the cells by means of an HP D300 digital dispenser in a 10 (or more)-step dilution series. As control, the cells were treated with vehicle (DMSO at 0.3% final concentration). After 72 h, the cells were treated with 20 μl/well of 50% CTG solution in PBS (Promega Cell Titer Glo (catalogue #G755B and G756B)) and incubated at room temperature for 10 min, and luminescence was measured by means of a VICTOR V (Perkin Elmer), in order to determine cell viability at the end of treatment. The percentage effect on cell growth and the IC50 derived therefrom were determined for each test substance using the values from untreated wells (=percent viability). The IC50 values were calculated using a 4-parameter fit.

SK-MEL-3 (melanoma) = experiment: Cell proliferation measurement (Cell Titer Glo), SK-MEL-3; assay type: cell-based; conditions: Homo sapiens, SK-MEL3, SK-MEL-3 cells, 72 h treatment, read-out: Anti-proliferation IC50 SK-MEL-3 (melanoma)
Procedure: as §1

human full length PDE3A = biological target: T1, human full length PDE3A (Homo sapiens, UniProt Q14432); experiment: PDE3A enzyme inhibition (3H-cAMP Scintillation Proximity Assay); assay type: biochemical; conditions: PDE3A cell extract from Sf9 cells, 60 min room temperature; read-out: Target IC50 PDE3A IC50
T1 construct: Sf9 cells overexpressing human full length PDE3A; purchased SB Drug Discovery, UK; host or cells: Sf9 cells (cell extract)
Procedure: (§2) The commercially available 3H-cAMP Scintillation Proximity Assay (SPA, Perkin Elmer) system was used for enzyme inhibition studies. For the determination of the in vitro effect of test substances on the PDE3A reactions 2 μl of the respective test compound solution in DMSO (serial dilutions) were is placed in wells of microtiter plates (Isoplate-96/200W; Perkin Elmer). 50 μl of a dilution of PDE3A cell extract from Sf9 cells overexpressing human full length PDE3A (SB Drug Discovery, UK) in buffer A (50 mM Tris/HCl pH 7.5, 8.3 mM MgCl2, 1.7 mM EDTA, 0.2% BSA) was added. The dilution of the PDE3A cell extract was chosen such that the reaction kinetics was linear and less than 70% of the substrate was consumed (typical dilution 1:5000). The reaction was started by addition of 50 μl (0.025 μCi) of 1:2000 in buffer A w/o BSA diluted substrate [8-3H] adenosine 3′,5′-cyclic phosphate (1 μCi/μl; Perkin Elmer). After incubation at room temperature for 60 min, the reaction was stopped by addition of 25 μl of a suspension containing 18 mg/ml yttrium scintillation proximity beads (Perkin Elmer) in water. The microtiter plates were sealed and measured in a Microbeta scintillation counter (PerkinElmer Wallac). IC50 values were determined from sigmoidal curves by plotting percentage PDE3A activity vs log compound concentration.

human full length PDE3B = biological target: T2, human full length PDE3B (Homo sapiens, UniProt Q13370); experiment: PDE3B enzyme inhibition (3H-cAMP Scintillation Proximity Assay); assay type: biochemical; conditions: PDE3B cell extract from Sf9 cells, 60 min room temperature; read-out: Target IC50 PDE3B IC50
T2 construct: Sf9 cells overexpressing human full length PDE3B; purchased SB Drug Discovery, UK; host or cells: Sf9 cells (cell extract)
Procedure: as §2, with “PDE3B” for “PDE3A”, “were” for “were is”, “1:6000).” for “1:5000).”

T1 sequence (Q14432 whole entry): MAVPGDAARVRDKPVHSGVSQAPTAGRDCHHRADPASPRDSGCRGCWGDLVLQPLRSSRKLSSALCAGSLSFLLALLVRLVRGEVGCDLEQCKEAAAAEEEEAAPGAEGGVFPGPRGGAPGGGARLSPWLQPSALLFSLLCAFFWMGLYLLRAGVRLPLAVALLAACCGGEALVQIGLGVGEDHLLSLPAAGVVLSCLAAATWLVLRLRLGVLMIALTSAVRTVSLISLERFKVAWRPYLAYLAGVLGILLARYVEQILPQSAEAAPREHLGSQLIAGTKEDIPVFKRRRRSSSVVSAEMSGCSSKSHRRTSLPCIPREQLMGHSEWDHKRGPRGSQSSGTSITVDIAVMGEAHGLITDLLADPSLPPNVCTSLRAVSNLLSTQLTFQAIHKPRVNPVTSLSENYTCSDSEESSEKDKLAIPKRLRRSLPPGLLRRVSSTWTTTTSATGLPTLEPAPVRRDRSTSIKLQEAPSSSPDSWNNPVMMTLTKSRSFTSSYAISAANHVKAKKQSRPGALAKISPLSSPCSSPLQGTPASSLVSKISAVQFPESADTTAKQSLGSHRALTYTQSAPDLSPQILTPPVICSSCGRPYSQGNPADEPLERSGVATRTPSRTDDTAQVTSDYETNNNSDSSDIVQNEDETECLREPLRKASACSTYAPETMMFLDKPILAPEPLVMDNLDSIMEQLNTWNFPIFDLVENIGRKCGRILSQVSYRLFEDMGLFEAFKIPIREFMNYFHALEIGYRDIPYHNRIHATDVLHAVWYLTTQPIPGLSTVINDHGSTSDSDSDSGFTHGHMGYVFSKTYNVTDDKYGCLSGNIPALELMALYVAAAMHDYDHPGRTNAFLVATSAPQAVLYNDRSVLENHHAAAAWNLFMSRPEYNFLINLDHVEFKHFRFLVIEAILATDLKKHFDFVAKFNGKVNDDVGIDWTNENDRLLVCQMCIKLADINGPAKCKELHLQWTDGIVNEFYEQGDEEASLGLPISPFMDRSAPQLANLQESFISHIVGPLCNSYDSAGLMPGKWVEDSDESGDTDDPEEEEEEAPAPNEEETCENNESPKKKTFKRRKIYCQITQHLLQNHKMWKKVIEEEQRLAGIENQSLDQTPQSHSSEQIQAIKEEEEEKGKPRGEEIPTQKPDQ
T2 sequence (Q13370 whole entry): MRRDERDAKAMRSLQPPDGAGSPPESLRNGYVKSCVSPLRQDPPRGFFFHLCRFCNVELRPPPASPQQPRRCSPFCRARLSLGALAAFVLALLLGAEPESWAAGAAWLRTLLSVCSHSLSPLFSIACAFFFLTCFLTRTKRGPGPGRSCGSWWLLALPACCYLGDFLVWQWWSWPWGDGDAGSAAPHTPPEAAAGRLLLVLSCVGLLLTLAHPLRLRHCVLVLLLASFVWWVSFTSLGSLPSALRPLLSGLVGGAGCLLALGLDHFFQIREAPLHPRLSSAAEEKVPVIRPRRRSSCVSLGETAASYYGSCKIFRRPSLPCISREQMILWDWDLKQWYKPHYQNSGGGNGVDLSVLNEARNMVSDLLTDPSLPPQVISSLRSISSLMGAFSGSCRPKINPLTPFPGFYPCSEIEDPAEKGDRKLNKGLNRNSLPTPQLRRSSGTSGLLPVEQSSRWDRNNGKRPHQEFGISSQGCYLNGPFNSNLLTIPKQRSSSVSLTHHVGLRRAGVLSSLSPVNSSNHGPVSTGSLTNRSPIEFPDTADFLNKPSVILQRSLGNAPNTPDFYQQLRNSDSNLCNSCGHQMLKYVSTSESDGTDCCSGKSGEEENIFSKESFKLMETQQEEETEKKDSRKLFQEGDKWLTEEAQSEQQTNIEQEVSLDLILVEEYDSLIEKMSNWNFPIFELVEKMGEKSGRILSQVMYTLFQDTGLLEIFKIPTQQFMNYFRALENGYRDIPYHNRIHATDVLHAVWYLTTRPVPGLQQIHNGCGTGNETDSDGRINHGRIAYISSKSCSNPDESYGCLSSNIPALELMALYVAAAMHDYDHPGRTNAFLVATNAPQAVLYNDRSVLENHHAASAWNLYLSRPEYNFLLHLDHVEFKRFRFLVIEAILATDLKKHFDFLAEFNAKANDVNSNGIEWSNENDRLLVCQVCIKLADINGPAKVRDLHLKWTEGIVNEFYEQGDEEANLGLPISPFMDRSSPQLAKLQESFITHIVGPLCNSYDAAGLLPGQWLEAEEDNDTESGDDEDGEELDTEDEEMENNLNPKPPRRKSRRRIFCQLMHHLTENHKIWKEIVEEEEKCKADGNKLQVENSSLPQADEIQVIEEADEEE

Row | SMILES | IC50 [1] | IC50 (SK-MEL-3 (melanoma)) | IC50 (human full length PDE3A) | IC50 (human full length PDE3B)
1 | CC1CCCN1c1ccc(C2=NNC(=O)CC2)cc1C(F)(F)F (stereo not drawn) [Example 20, 6-{4-[2-Methylpyrrolidin-1-yl]-3-(trifluoromethyl)phenyl}-4,5-dihydropyridazin-3(2H)-one] | 33.5 nM | 47.7 nM | 220 nM | 160 nM
2 | Cc1cc(F)ccc1-c1ccc(C2=NNC(=O)CC2)cc1C [Example 4, 6-(4′-Fluoro-2,2′-dimethylbiphenyl-4-yl)-4,5-dihydropyridazin-3(2H)-one] | 12.5 nM | 22.8 nM | 420 nM | 160 nM
3 | O=C1CCC(c2ccc(-c3cccc4[nH]ccc34)c(F)c2)=NN1 [Example 75, 6-[3-fluoro-4-(1H-indol-4-yl)phenyl]-4,5-dihydropyridazin-3(2H)-one] | 27.6 nM | 43.5 nM | 100 nM | 120 nM
4 | Nc1cccc(-c2ccc(C3=NNC(=O)CC3)cc2F)c1 [Example 65, 6-(3′-amino-2-fluoro[1,1′-biphenyl]-4-yl)-4,5-dihydropyridazin-3(2H)-one] | 12.8 nM | 16.9 nM | 120 nM | 76 nM
5 | Cc1ncc(-c2ccc(C3=NNC(=O)CC3)cc2F)cn1 [Example 31, 6-[3-fluoro-4-(2-methylpyrimidin-5-yl)phenyl]-4,5-dihydropyridazin-3(2H)-one] | 34.4 nM | 47.3 nM | 160 nM | 93 nM
6 | COc1ccccc1-c1ccc(C2=NNC(=O)CC2)cc1F [Example 62, 6-(2-fluoro-2′-methoxy[1,1′-biphenyl]-4-yl)-4,5-dihydropyridazin-3(2H)-one] | 14 nM | 22.8 nM | 120 nM | 47 nM
7 | COc1cccc(-c2ccc(C3=NNC(=O)CC3)cc2C)c1 [Example 113, 6-(3′-methoxy-2-methyl[1,1′-biphenyl]-4-yl)-4,5-dihydropyridazin-3(2H)-one] | 33 nM | > 100 nM | 88 nM | 91 nM
8 | CC(C)=Cc1ccc(C2=NNC(=O)CC2)cc1F [Example 27, 6-[3-Fluoro-4-(2-methylprop-1-en-1-yl)phenyl]-4,5-dihydropyridazin-3(2H)-one] | 3.36 nM | 6.1 nM | 130 nM | 140 nM
9 | Cc1ccccc1-c1ccc(C2=NNC(=O)CC2)cc1C [Example 116, 6-(2,2′-dimethyl[1,1′-biphenyl]-4-yl)-4,5-dihydropyridazin-3(2H)-one] | 8.39 nM | 42.9 nM | 220 nM | 170 nM
10 | O=C1CCC(c2ccc(N3CCOCC3)c(F)c2)=NN1 [Example 25, 6-[3-Fluoro-4-(morpholin-4-yl)phenyl]-4,5-dihydropyridazin-3(2H)-one] | 6.19 nM | 19.9 nM | 210 nM | 160 nM
11 | COc1cc(-c2ccc(C3=NNC(=O)CC3)cc2F)ccn1 [Example 32, 6-[3-fluoro-4-(2-methoxypyridin-4-yl)phenyl]-4,5-dihydropyridazin-3(2H)-one] | 59.9 nM | 64.7 nM | 64 nM | 36 nM
12 | Nc1ccc(F)cc1-c1ccc(C2=NNC(=O)CC2)cc1F [Example 43, 6-(2′-amino-2,5′-difluoro[1,1′-biphenyl]-4-yl)-4,5-dihydropyridazin-3(2H)-one] | 15.3 nM | 26.3 nM | 110 nM | 110 nM
13 | O=C1CCC(c2ccc(-c3cc(F)cc(F)c3)c(F)c2)=NN1 [Example 54, 6-(2,3′,5′-trifluoro[1,1′-biphenyl]-4-yl)-4,5-dihydropyridazin-3(2H)-one] | 18.5 nM | 37.8 nM | 190 nM | 380 nM
14 | COc1ccc(C2=NNC(=O)CC2)cc1Cl [Example 10, 6-(3-Chloro-4-methoxyphenyl)-4,5-dihydropyridazin-3(2H)-one] | 31.8 nM | 40.2 nM | 110 nM | 110 nM
15 | N#Cc1cccc(-c2ccc(C3=NNC(=O)CC3)cc2F)c1 [Example 47, 2′-fluoro-4′-(6-oxo-1,4,5,6-tetrahydropyridazin-3-yl)[1,1′-biphenyl]-3-carbonitrile] | 13.7 nM | 19.3 nM | 95 nM | 96 nM
16 | Cc1cccc(-c2ccc(C3=NNC(=O)CC3)cc2C)c1 [Example 120, 6-(2,3′-dimethyl[1,1′-biphenyl]-4-yl)-4,5-dihydropyridazin-3(2H)-one] | 45.9 nM | > 100 nM | 200 nM | 180 nM
17 | Cc1cc(C2=NNC(=O)CC2)ccc1-c1ccc(F)cc1F [Example 106, 6-(2′,4′-difluoro-2-methyl[1,1′-biphenyl]-4-yl)-4,5-dihydropyridazin-3(2H)-one] | 4.79 nM | 21.4 nM | 110 nM | 100 nM
18 | Cc1cc(C2=NNC(=O)CC2)ccc1-c1cccc(F)c1 [Example 112, 6-(3′-fluoro-2-methyl[1,1′-biphenyl]-4-yl)-4,5-dihydropyridazin-3(2H)-one] | 13.9 nM | 58.2 nM | 140 nM | 110 nM
19 | CCNc1ccc(C2=NNC(=O)CC2)cc1C(F)(F)F [Example 18, 6-[4-(Ethylamino)-3-(trifluoromethyl)phenyl]-4,5-dihydropyridazin-3(2H)-one] | 5.39 nM | 10.5 nM | 66 nM | 73 nM
20 | Cc1cc(F)ccc1-c1ccc(C2=NNC(=O)CC2)cc1 [Example 26, 6-(4′-Fluoro-2′-methylbiphenyl-4-yl)-4,5-dihydropyridazin-3(2H)-one] | 2.02 nM | 3.6 nM | 93 nM | 90 nM
21 | Cc1cc(C2=NNC(=O)CC2)ccc1-c1cc(F)ccc1F [Example 98, 6-(2′,5′-difluoro-2-methyl[1,1′-biphenyl]-4-yl)-4,5-dihydropyridazin-3(2H)-one] | 12.7 nM | 64.3 nM | 180 nM | 120 nM
22 | N#Cc1ccc(F)c(-c2ccc(C3=NNC(=O)CC3)cc2F)c1 [Example 89, 2′,6-difluoro-4′-(6-oxo-1,4,5,6-tetrahydropyridazin-3-yl)[1,1′-biphenyl]-3-carbonitrile] | 74.3 nM | > 100 nM | 140 nM | 150 nM
23 | O=C1CCC(c2ccc(N3CC4CC(C3)C4(F)F)c(C(F)(F)F)c2)=NN1 [Example 21, 6-[4-(6,6-Difluoro-3-azabicyclo[3.1.1]hept-3-yl)-3-(trifluoromethyl)phenyl]-4,5-dihydropyridazin-3(2H)-one] | 2.87 nM | 5.82 nM | 82 nM | 50 nM
24 | O=C1CCC(c2ccc(C3=CCOCC3)cc2)=NN1 [Example 1, 6-[4-(3,6-Dihydro-2H-pyran-4-yl)phenyl]-4,5-dihydropyridazin-3(2H)-one] | 30.9 nM | > 100 nM | 470 nM | 290 nM
